{"source": "paper PMC9620261", "about": "(Journal of Medicinal Chemistry, 2022)", "key": {"[1]": {"tested_on": "D423 (ENO1–/–) glioma cells", "experiment": "In vitro cytotoxicity of prodrugs, three-cell line assay"}, "[2]": {"conditions": "20% D2O, 31P NMR; for hydrolysis in human serum/plasma: 80% human plasma/serum"}, "[3]": {"tested_on": "LN319 (ENO1+/+) glioma cells", "experiment": "cells", "conditions": "LN-319, 144 h, read-out: IC50 LN319 (ENO1+/+), 6 day treatment"}, "[4]": {"tested_on": "ENO1–/– intracranial orthotopic tumors", "conditions": "cited from earlier work; for effect on ENO1–/– intracranial orthotopic tumors: mice, 6: 10 mg/kg IV and IP, 5: 150 mg/kg IV and 100 mg/kg IP"}, "[5]": {"tested_on": "D423 ENO1 (ENO1-isogenic rescue) glioma cells", "experiment": "In vitro cytotoxicity of prodrugs, three-cell line assay"}, "[6]": {"tested_on": "NCI-60 cell line panel", "format": "cell-based", "conditions": "10 μM, 24 h"}, "[7]": {"conditions": "80% DMEM, 20% D2O, 31P NMR"}, "[8]": {"tested_on": "LN319 (ENO1+/+) glioma cells", "conditions": "read-out: IC50 LN319 (ENO1+/+); 6 day treatment"}, "[9]": {"conditions": "Glioma cell, 144 h, read-out: IC50 D423 (ENO1–/–), 6 day treatment"}, "[10]": {"conditions": "Glioma cell, 144 h, read-out: IC50 D423 (ENO1–/–), 1% O2 (hypoxic), 6 days"}, "[11]": {"conditions": "read-out: IC50 D423 (ENO1–/–), 6 day treatment"}}, "note": "pIC50: −log10 of the molar value. Read-outs that look alike come from different tables or passages of the source."}
{"molecule": "CC(C)(C)C(=O)OCOP(=O)(NCc1ccccc1)C1CCCN(O)C1=O", "note": "(stereo not drawn) [20b]", "values": [{"measurement": "pIC50", "setting": "[1]; [9]", "result": 6.61}]}
{"molecule": "CC(C)OC(=O)[C@H](C)NP(=O)(OCOC(=O)C(C)(C)C)C1CCCN(O)C1=O", "note": "(stereo partly drawn) [20o]", "values": [{"measurement": "pIC50", "setting": "[1]; [9]", "result": 6.69}]}
{"molecule": "CC(C)OC(=O)[C@H](C)N[P@](=O)(CO[C@H](C)Cn1cnc2c(N)ncnc21)Oc1ccccc1", "note": "[TAF, tenofovir alafenamide, reference compound]", "values": [{"measurement": "hydrolysis in human serum/plasma", "setting": "[2]", "result": "occurs rapidly"}]}
{"molecule": "O=C1C(P(=O)(O)O)CCCN1O", "note": "(stereo not drawn) [compound 5]", "values": [{"measurement": "pIC50", "setting": "[3]", "result": "< 3.52"}, {"measurement": "effect on ENO1–/– intracranial orthotopic tumors", "setting": "[4]", "result": "profound tumor regression"}]}
{"molecule": "CC(C)(C)C(=O)OCOP(=O)(OCOC(=O)C(C)(C)C)C1CCCN(O)C1=O", "note": "(stereo not drawn) [compound 6, POMHEX]", "values": [{"measurement": "hydrolysis in human serum/plasma", "setting": "[2]", "result": "rapidly hydrolyzed to the mono-POM ester intermediate"}, {"measurement": "drug-related adverse events", "setting": "[4]; 50 day in vivo evaluation", "result": "no drug-related adverse events were observed"}, {"measurement": "effect on ENO1–/– intracranial orthotopic tumors", "setting": "[4]", "result": "profound tumor regression"}, {"measurement": "pIC50", "setting": "[1]; [10]", "result": 6.70}, {"measurement": "pIC50", "setting": "[1]; Glioma cell, 144 h, read-out: IC50 D423 (ENO1–/–), 21% O2, 6 days", "result": 7.10}]}
{"molecule": "CC(C)OC(=O)[C@H](C)NP(=O)(Oc1ccccc1)C1CCCN(O)C1=O", "note": "(stereo partly drawn) [compound 17]", "values": [{"measurement": "time prodrug remains stable/intact in human serum/plasma", "setting": "[2]; 80% human plasma, 37 °C", "result": "over 9 h"}, {"measurement": "hydrolysis in human serum/plasma", "setting": "[2]", "result": "incomplete even after 336 h"}]}
{"molecule": "CC(=O)ON1CCCC(P(=O)(NCc2ccccc2)OCc2ccc([N+](=O)[O-])o2)C1=O", "note": "(stereo not drawn) [compound 24]", "values": [{"measurement": "pIC50", "setting": "[1]; [10]", "result": 6.87}]}
{"molecule": "O=C1C(P(=O)(NCc2ccccc2)Oc2ccc(F)cc2)CCCN1O", "note": "(stereo not drawn) [compound 26, 4-Fluorophenyl N-Benzyl-P-(1-hydroxy-2-oxopiperidin-3-yl)phosphonamidate]", "values": [{"measurement": "pIC50", "setting": "[1]; [9]", "result": "< 4.00"}, {"measurement": "pIC50", "setting": "[5]; Glioma cell, 144 h, read-out: IC50 D423 ENO1 (ENO1-tg), 6 day treatment", "result": "< 4.00"}]}
{"molecule": "CCCCCCCCCCCCCCCCOCCCOP(=O)(O)C1CCCN(O)C1=O", "note": "(stereo not drawn) [compound 28]", "values": [{"measurement": "Average % Growth: Melanoma", "setting": "[6]", "result": 5, "unit": "%"}]}
{"molecule": "CC(C)C(=O)ON1CCCC(P2(=O)OCc3ccccc3O2)C1=O", "note": "(stereo not drawn) [compound 30, 3-(2-Oxido-4H-benzo[d][1,3,2]dioxaphosphinin-2-yl)-2-oxopiperidin-1-yl Isobutyrate]", "values": [{"measurement": "time by which no intact prodrug is detectable in human plasma/serum", "setting": "[2]; 80% human plasma, 37 °C", "result": "≤ 3", "unit": "h"}, {"measurement": "time by which no intact prodrug is present in cell culture media", "setting": "[7]", "result": "≤ 3", "unit": "h"}]}
{"molecule": "Bis(cyanomethyl)(1-hydroxy-2-oxopiperidin-3-yl)phosphonate [compound 29]", "values": [{"measurement": "pIC50", "setting": "[8]", "result": "< 4.00"}, {"measurement": "t1/2 in human plasma", "setting": "[2]; 80% human plasma, 37 °C", "result": "approximately 10 h"}, {"measurement": "pIC50", "setting": "[1]; [11]", "result": "< 4.00"}]}
{"molecule": "Cyanomethyl N-Benzyl-P-(1-hydroxy-2-oxopiperidin-3-yl)phosphonamidate [compound 25]", "values": [{"measurement": "pIC50", "setting": "[1]; [11]", "result": 5.18}, {"measurement": "pIC50", "setting": "[1]; read-out: IC50 in D423 cells, 6 day treatment", "result": "~5.15"}, {"measurement": "pIC50", "setting": "[5]; read-out: IC50 D423 ENO1 (ENO1-tg), 6 day treatment", "result": "< 4.15"}]}
